In ChEMBL document CHEMBL1201862, “PubChem BioAssay data set” (2004):
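These data come from cells grown in 96-well plates and exposed to compound for 48 hours at five concentrations. GI50: concentration for 50% inhibition of growth.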 Activity calls are given as the source filed them. No stated cut-off is given here; in the data, active = GI50 up to about 1.1 µM and inactive = higher.

Tests used:
Assay in all cases: NCI tumour cell line growth inhibition, 48 h
M14 = system: M14
NCI-H23 = system: NCI-H23
HOP-62 = system: HOP-62
SW-620 = system: SW-620
HCT-116 = system: HCT-116
A498 = system: A498
A549 = system: A549
SK-MEL-2 = system: SK-MEL-2
UACC-62 = system: UACC-62
U-251 = system: U-251
SF-268 = system: SF-268
CAKI-1 = system: CAKI-1
HCT-15 = system: HCT-15
SNB-75 = system: SNB-75
UO-31 = system: UO-31
NCI-H460 = system: NCI-H460
MCF7 = system: MCF7
MDA-MB-435 = system: MDA-MB-435
PC-3 = system: PC-3
Hs-578T = system: Hs-578T

| SMILES | GI50 (M14) | GI50 (NCI-H23) | GI50 (HOP-62) | GI50 (SW-620) | GI50 (HCT-116) | GI50 (A498) | GI50 (A549) | GI50 (SK-MEL-2) | GI50 (UACC-62) | GI50 (U-251) | GI50 (SF-268) | GI50 (CAKI-1) | GI50 (HCT-15) [µM] | GI50 (SNB-75) | GI50 (UO-31) | GI50 (NCI-H460) | GI50 (MCF7) | GI50 (MDA-MB-435) | GI50 (PC-3) | GI50 (Hs-578T) |
| --- | --- | --- | --- | --- | --- | --- | --- | --- | --- | --- | --- | --- | --- | --- | --- | --- | --- | --- | --- | --- |
| CC(=O)Oc1ccc2c(c1)C(=O)c1nc(C)c(C)nc1C2=O | 38.1 µM (inactive) | 43.4 µM (inactive) | 23.7 µM (inactive) | 46.5 µM (inactive) | 43.7 µM (inactive) | > 63.4 µM (inactive) | 43.7 µM (inactive) | 39.6 µM (inactive) | 17.5 µM (inactive) | 51.6 µM (inactive) | 94.2 µM (inactive) | > 76.6 µM (inactive) | 40.9 | 80.4 µM (inactive) | > 74.6 µM (inactive) | 30.8 µM (inactive) |  |  |  |  |
| CN(C)/C(F)=P\C(F)(F)F (stereo unspecified) | > 100 µM (inactive) | > 100 µM (inactive) | > 100 µM (inactive) | > 100 µM (inactive) | > 100 µM (inactive) | > 100 µM (inactive) | > 100 µM (inactive) | > 100 µM (inactive) | > 100 µM (inactive) | > 100 µM (inactive) | > 100 µM (inactive) | > 100 µM (inactive) | > 100 | > 100 µM (inactive) | > 100 µM (inactive) | > 100 µM (inactive) |  |  |  |  |
| CCN(CC)CCCNC(=O)c1cc(-c2nccn2C)nc2ccccc12 | > 100 µM (inactive) | > 100 µM (inactive) | > 100 µM (inactive) | > 100 µM (inactive) | > 100 µM (inactive) | > 100 µM (inactive) | > 100 µM (inactive) | > 100 µM (inactive) | > 100 µM (inactive) | > 100 µM (inactive) | > 100 µM (inactive) | > 100 µM (inactive) | > 100 | 57.7 µM (inactive) | 50.2 µM (inactive) | 59.7 µM (inactive) | > 100 µM (inactive) | > 100 µM (inactive) | > 100 µM (inactive) |  |
| COc1ccc(SS(=O)(=O)c2ccc(OC)cc2)cc1 | 20 µM (inactive) | 26.1 µM (inactive) | 23.8 µM (inactive) | 3.69 µM (inactive) | 16.1 µM (inactive) | 17.2 µM (inactive) | 24.4 µM (inactive) | 36 µM (inactive) | 20 µM (inactive) | 14.2 µM (inactive) | 17.4 µM (inactive) | 22.5 µM (inactive) | 36.7 | 23.2 µM (inactive) | 13.9 µM (inactive) | 38.6 µM (inactive) |  |  |  |  |
| COC(=O)C1CC/C(=N/c2ccc(C)cc2C)N1 (stereo unspecified) | > 100 µM (inactive) | > 100 µM (inactive) | > 100 µM (inactive) | > 100 µM (inactive) | > 100 µM (inactive) | > 100 µM (inactive) | > 100 µM (inactive) | > 100 µM (inactive) | > 100 µM (inactive) | > 100 µM (inactive) | > 100 µM (inactive) | > 100 µM (inactive) | > 100 | 99.3 µM (inactive) | > 100 µM (inactive) | > 100 µM (inactive) |  |  |  |  |
| Cc1sc(Nc2ccccc2[N+](=O)[O-])c(C#N)c1C | > 100 µM (inactive) | 13.9 µM (inactive) | 20.8 µM (inactive) |  | 17.5 µM (inactive) | 29.4 µM (inactive) | > 100 µM (inactive) |  | 77.8 µM (inactive) | 21.3 µM (inactive) | 14.5 µM (inactive) | 17.1 µM (inactive) | 23 | 12.1 µM (inactive) | > 100 µM (inactive) | > 100 µM (inactive) | 94.2 µM (inactive) | > 100 µM (inactive) | 94.8 µM (inactive) |  |
| CCOC(=O)C1=C(C)N(C)C23OC4(C(=O)OC)CC2c2ccccc2C1N3C4=O (stereo unspecified) | 73.8 µM (inactive) | > 100 µM (inactive) | > 100 µM (inactive) | 41.9 µM (inactive) | 49.8 µM (inactive) | > 100 µM (inactive) | > 100 µM (inactive) | > 100 µM (inactive) | > 100 µM (inactive) | > 100 µM (inactive) | > 100 µM (inactive) | > 100 µM (inactive) | 63.7 | > 100 µM (inactive) | 25.1 µM (inactive) | 20 µM (inactive) | 28.1 µM (inactive) | 30.8 µM (inactive) | > 100 µM (inactive) |  |
| CC(C(N)=O)N(C)C(=O)c1cc2ccccc2[n+](Cc2ccccc2)c1 (stereo unspecified) | > 100 µM (inactive) | > 100 µM (inactive) |  | > 100 µM (inactive) | > 100 µM (inactive) | > 100 µM (inactive) | > 100 µM (inactive) | > 100 µM (inactive) | > 100 µM (inactive) | > 100 µM (inactive) | > 100 µM (inactive) | > 100 µM (inactive) | > 100 | > 100 µM (inactive) | > 100 µM (inactive) | > 100 µM (inactive) | > 100 µM (inactive) | > 100 µM (inactive) | > 100 µM (inactive) |  |
| Cc1ccc2nc(CN3CCCC(O)C3)cc(=O)n2c1 (stereo unspecified) | > 100 µM (inactive) | > 100 µM (inactive) | > 100 µM (inactive) | > 100 µM (inactive) | > 100 µM (inactive) |  | > 100 µM (inactive) | > 100 µM (inactive) | > 100 µM (inactive) | > 100 µM (inactive) | > 100 µM (inactive) | > 100 µM (inactive) | > 100 | > 100 µM (inactive) | > 100 µM (inactive) | > 100 µM (inactive) | > 100 µM (inactive) | > 100 µM (inactive) | > 100 µM (inactive) | > 100 µM (inactive) |
| Oc1ccc2ccccc2c1/N=N/c1ccc(Br)cc1 | 87.5 µM (inactive) | > 100 µM (inactive) | 21 µM (inactive) | > 100 µM (inactive) | > 100 µM (inactive) |  | > 100 µM (inactive) | > 100 µM (inactive) | > 100 µM (inactive) | > 100 µM (inactive) | 23.6 µM (inactive) | > 100 µM (inactive) | > 100 | 95.5 µM (inactive) | > 100 µM (inactive) |  |  | > 100 µM (inactive) | > 100 µM (inactive) | 24.7 µM (inactive) |
| CCOC(=O)NC(=S)NC(C)c1ccccc1 (stereo unspecified) | > 100 µM (inactive) | > 100 µM (inactive) | > 100 µM (inactive) | > 100 µM (inactive) | > 100 µM (inactive) |  | > 100 µM (inactive) | > 100 µM (inactive) | > 100 µM (inactive) | > 100 µM (inactive) | > 100 µM (inactive) | > 100 µM (inactive) | > 100 | > 100 µM (inactive) | 70.6 µM (inactive) |  | > 100 µM (inactive) | > 100 µM (inactive) | > 100 µM (inactive) | > 100 µM (inactive) |
| CCOC(=O)c1c(C)nc2c(c1-c1cn(-c3ccccc3)nc1-c1ccccc1)C(=O)c1ccccc1-2 | > 100 µM (inactive) | > 100 µM (inactive) | > 100 µM (inactive) | > 100 µM (inactive) | > 100 µM (inactive) | > 100 µM (inactive) | > 100 µM (inactive) | > 100 µM (inactive) | > 100 µM (inactive) | > 100 µM (inactive) | > 100 µM (inactive) | > 100 µM (inactive) | > 100 | > 100 µM (inactive) |  |  |  | > 100 µM (inactive) | > 100 µM (inactive) | > 100 µM (inactive) |
| O=C(O)Cc1cccc2c1OC(c1ccccc1)C(C(=O)c1ccccc1)C2=O (stereo unspecified) |  | 29.5 µM (inactive) | > 100 µM (inactive) | 37.8 µM (inactive) | 33 µM (inactive) |  | 36.3 µM (inactive) |  | 13.4 µM (inactive) | 40.9 µM (inactive) | 44 µM (inactive) | 42.1 µM (inactive) | 98.4 | 12.2 µM (inactive) | 88.9 µM (inactive) | 30.5 µM (inactive) | 34.6 µM (inactive) | 35 µM (inactive) | > 100 µM (inactive) | > 100 µM (inactive) |
| CC(C)(C)c1ccc2c(c1)S(=O)(=O)Nc1ccc(Cl)cc1NS(=O)(=O)c1cc(C(C)(C)C)ccc1OCCOCCOCCO2 | 81.7 µM (inactive) | 32.4 µM (inactive) | 32.3 µM (inactive) | 98.9 µM (inactive) | 35.9 µM (inactive) | > 100 µM (inactive) | 25.1 µM (inactive) | 45.6 µM (inactive) | 17.9 µM (inactive) | 29.2 µM (inactive) | 31.1 µM (inactive) | 98.2 µM (inactive) | > 100 | 24 µM (inactive) | 53.5 µM (inactive) | 26 µM (inactive) |  |  |  |  |
| Cc1ccc(N2C(=O)/C(=C/c3ccc(N(CCC#N)CCC#N)cc3C)N=C2c2cc([N+](=O)[O-])ccc2Cl)cc1 | > 100 µM (inactive) | > 100 µM (inactive) | > 100 µM (inactive) | > 100 µM (inactive) | > 100 µM (inactive) | > 100 µM (inactive) | > 100 µM (inactive) | > 100 µM (inactive) | > 100 µM (inactive) | > 100 µM (inactive) | > 100 µM (inactive) | 56 µM (inactive) | > 100 | > 100 µM (inactive) | > 100 µM (inactive) | > 100 µM (inactive) |  |  |  |  |
| CO[C@H]1[C@@H](O)[C@H](O[C@@H]2C[C@H]3CC[C@@H]4[C@H](CC[C@]5(C)[C@@H](C6=CC(=O)OC6)CC[C@]45O)[C@@]3(C)[C@H](OC(C)=O)C2)O[C@@H](C)[C@H]1O | 2.22 µM (inactive) | 0.662 µM (active) | 0.933 µM (active) | 2.36 µM (inactive) | 0.76 µM (active) | 1.31 µM (inactive) | 0.384 µM (active) | 2.88 µM (inactive) | 2.43 µM (inactive) | 2.54 µM (inactive) | 0.646 µM (active) | 0.533 µM (active) | 1.92 | 3.61 µM (inactive) | 1.27 µM (inactive) | 0.465 µM (active) |  | 3.19 µM (inactive) | 2.26 µM (inactive) | 2.07 µM (inactive) |
